The source of these data is ChEMBL document CHEMBL4342498, “Design and Discovery of an Orally Efficacious Spiroindolinone-Based Tankyrase Inhibitor for the Treatment of Colon Cancer” (J Med Chem, 2020).

Data set [1] has as its target Cytochrome P450 2C19 (Homo sapiens, UniProt P33261). The data set can be described thus: Inhibition of CYP2C19 in human liver microsomes using (S)-mephenytoin as substrate preincubated for 5 mins followed by NADPH addition and measured for 10 to 30 mins by LC-MS/MS analysis. In kind it is ADME. (In general: Microsomes from liver hold many membrane-bound enzymes, among them those of drug oxidation.)

For data set [2], the target named is T1, Protein mono-ADP-ribosyltransferase PARP10 (Homo sapiens, UniProt Q53GL7).
T1 sequence (Q53GL7 whole entry): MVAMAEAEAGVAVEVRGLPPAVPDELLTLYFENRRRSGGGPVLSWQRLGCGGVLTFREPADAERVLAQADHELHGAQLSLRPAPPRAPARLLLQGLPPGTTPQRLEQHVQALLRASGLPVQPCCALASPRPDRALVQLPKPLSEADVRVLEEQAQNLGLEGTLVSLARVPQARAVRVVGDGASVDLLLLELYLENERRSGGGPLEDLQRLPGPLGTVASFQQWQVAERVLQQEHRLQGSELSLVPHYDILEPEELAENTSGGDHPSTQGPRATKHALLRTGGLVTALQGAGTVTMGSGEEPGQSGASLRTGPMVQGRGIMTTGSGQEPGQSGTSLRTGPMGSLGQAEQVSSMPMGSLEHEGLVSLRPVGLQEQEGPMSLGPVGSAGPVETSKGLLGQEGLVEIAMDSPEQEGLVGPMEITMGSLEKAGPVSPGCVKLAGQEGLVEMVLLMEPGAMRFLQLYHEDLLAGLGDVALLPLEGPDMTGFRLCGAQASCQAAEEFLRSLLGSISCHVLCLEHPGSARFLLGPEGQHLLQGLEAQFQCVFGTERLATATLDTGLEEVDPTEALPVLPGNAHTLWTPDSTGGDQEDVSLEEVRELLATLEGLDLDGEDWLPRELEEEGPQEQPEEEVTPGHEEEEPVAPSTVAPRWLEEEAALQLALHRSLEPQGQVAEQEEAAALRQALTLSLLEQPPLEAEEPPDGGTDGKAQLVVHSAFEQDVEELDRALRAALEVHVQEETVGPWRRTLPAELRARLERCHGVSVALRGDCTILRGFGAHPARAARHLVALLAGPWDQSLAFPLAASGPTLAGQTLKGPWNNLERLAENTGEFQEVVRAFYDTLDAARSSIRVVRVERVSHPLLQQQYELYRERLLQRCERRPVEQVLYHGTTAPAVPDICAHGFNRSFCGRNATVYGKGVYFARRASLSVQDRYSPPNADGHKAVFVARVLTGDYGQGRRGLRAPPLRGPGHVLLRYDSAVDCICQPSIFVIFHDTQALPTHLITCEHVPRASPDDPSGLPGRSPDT
The data set can be described thus: Inhibition of human recombinant N-terminal TEV-cleavgae site-fused-FLAG/Polyhis-tagged PARP10 […] expressed in Escherichia coli assessed as reduction in auto-PARylation using histone as substrate measured after 45 mins in presence of biotinylated-NAD+ by ELISA.

The species named for data set [3] is Homo sapiens.
Data set [4] in a line: Plasma concentration in human COLO320DM cells xenografted Prkdc-NOD-SCID CB17 mouse at 10 mg/kg, po administered twice daily for 5 days followed by 2 days interval for 2 cycles measured 4 hrs post-last dose. In kind it is ADME, organism-based. A general note: In xenograft studies the graft and the host belong to different species.

Each structure is given as a SMILES string. Where only a bound is given, the exact number is not on record here.

Sequence of Cytochrome P450 2C19 (P33261 whole entry): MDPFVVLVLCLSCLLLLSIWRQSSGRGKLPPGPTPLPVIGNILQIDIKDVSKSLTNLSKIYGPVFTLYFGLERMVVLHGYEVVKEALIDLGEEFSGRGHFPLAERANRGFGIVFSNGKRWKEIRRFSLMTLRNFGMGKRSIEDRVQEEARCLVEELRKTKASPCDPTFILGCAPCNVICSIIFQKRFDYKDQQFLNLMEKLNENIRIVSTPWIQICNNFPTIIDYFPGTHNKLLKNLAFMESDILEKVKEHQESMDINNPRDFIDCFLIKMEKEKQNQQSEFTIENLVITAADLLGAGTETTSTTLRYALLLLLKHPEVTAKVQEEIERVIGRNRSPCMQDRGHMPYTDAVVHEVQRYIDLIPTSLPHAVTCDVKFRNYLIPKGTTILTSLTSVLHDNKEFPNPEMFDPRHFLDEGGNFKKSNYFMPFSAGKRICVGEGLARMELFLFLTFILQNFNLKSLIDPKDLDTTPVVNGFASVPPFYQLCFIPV

Usually IC50 stands for the concentration at which inhibition is half-maximal. With `C[C@@H]1CN(c2cc(F)c3c(c2)N(C)C(=O)C32CCN(c3nc4c(c(=O)[nH]3)CCCN4C)CC2)C[C@H](C)O1`, the IC50 was greater than 10 µM in data set [1] and 8.05 µM in data set [2]. The Ratio IC50 in data set [3] is 504. The concentration at 4 h in data set [4] was found to be 10.1 µM.
